Laboratory results from patent publication US11045480B2, “Anti-huLRRC15 antibody drug conjugates and methods for their use” (AbbVie Inc., priority 2015, dated 2021).

Key:
[1] = test system: HPAF-II (human pancreatic) xenograft; assay: HPAF-II xenograft tumor growth; format: in vivo, mouse
Description: For the experiment, 1 million cells (HPAF-II) that were grown in vitro were inoculated subcutaneously per mouse into the right flank of female SCID-Beige mice. Tumors were size matched at ˜200 mm^3, and dosed intraperitoneally (IP) Q4D×6 (1 dose given every 4 days for a total of 6 doses) as shown in FIG. 13B.
In FIG. 21A, HPAF-II pancreatic cancer cells (1 million) were implanted subcutaneously into SCID mice, and mice were randomized when the tumors reached ˜200 mm^3 and dosed with biologics at 6 mg/kg intraperitoneally on a Q4D×6 (one dose given every 4 days for a total of 6 doses), while gemcitabine was dosed intraperitoneally at 100 mg/kg (Q3D×4)×2 (one dose given every three days for 4 doses per cycle, 2 cycles with 8 total doses given).

[2] = test system: PANC1 (pancreatic) xenograft; assay: PANC1 xenograft tumor growth; format: in vivo, mouse
Description: In FIG. 20E, PANC1 pancreatic cancer cells (10 million) were implanted subcutaneously into SCID mice, and mice were randomized when the tumors reached ˜125 mm^3 and dosed with biologics at 12 mg/kg intraperitoneally on a Q4D×6 (one dose given every 4 days for a total of 6 doses), while gemcitabine was dosed intraperitoneally at 100 mg/kg Q3D×4) (one dose given every three days for 4 doses total).

[3] = test system: NCI-H1650 (NSCLC) xenograft; assay: NCI-H1650 xenograft tumor growth; format: in vivo, mouse
Description: The potency of anti-huLRRC15 ADCs as compared to current standards of care was assessed in xenograft models with NCI-H1650 ([…]), HN5 (head and neck), EBC-1 (squamous NSCLC), NW231 (breast) and PANC1 (pancreatic) cancer cells. […] For FIG. 20A, NCI-H1650 cells (5 million cells) were implanted subcutaneously into SCID/Beige mice and tumors were randomized when they reached ˜200 mm^3 and dosed with biologics at 6 or 12 mg/kg intraperitoneally on a Q4D×6 (one dose given every 4 days for a total of 6 doses), while erlotinib was dosed orally daily for 10 days at 100 mg/kg, and carboplatin was dosed intraperitoneally Q4D×4 (one dose given every 4 days for a total of 4 doses) at 50 mg/kg.
NCI-H1650 NSCLC cancer cells (5 million) were implanted subcutaneously into SCID/Beige mice, and mice were randomized when the tumors reached ˜200 mm^3 and dosed with biologics at 6 or 12 mg/kg intraperitoneally on a Q4D×6 (one dose given every 4 days for a total of 6 doses), while erlotinib was dosed orally daily at 100 mg/kg for 10 doses.
NCI-H1650 NSCLC cancer cells (5 million) were implanted subcutaneously into SCID/Beige mice, and mice were randomized when the tumors reached ˜200 mm^3 and dosed on day 0 with isotype or ADC at 0.1, 0.3, or 0.6 mg/kg intraperitoneally.
NCI-H1650 adeno NSCLC cells (5 million) were implanted subcutaneously into SCID/Beige mice, and mice were randomized when the tumors reached ˜225 mm^3 and dosed with ADC at 0.6 mg/kg or isotype antibody at 12 mg/kg intraperitoneally once on day 0.

[4] = test system: HN5 (head and neck) xenograft; assay: HN5 xenograft tumor growth; format: in vivo, mouse; conditions: HN5, NSG mice; ADC 4.5 mg/kg IP Q4D×6; erlotinib 150 mg/kg orally daily ×10; cetuximab 3 mg/kg IP Q7D×3 (FIG. 20B)
[5] = test system: SCC-15 head and neck cancer xenograft; assay: SCC-15 xenograft tumor growth; format: in vivo, mouse; conditions: for TGD, single agent / TGImax, single agent: SCC-15, SCID mice
Description: Radiation is a commonly used cytotoxic therapy in oncology. […] SCC-15 head and neck cancer cells (1 million) were implanted subcutaneously into SCID mice, and mice were randomized when the tumors reached ˜200 mm^3 and dosed with biologics at 12 mg/kg intraperitoneally on a Q4D×6 (one dose given every 4 days for a total of 6 doses), while the radiation was directed at the tumor with a single radiation dose of 15 Gy on day 0.
SCC-15 head and neck cancer cells (1 million) were implanted subcutaneously into SCID mice, and mice were randomized when the tumors reached ˜200 mm^3 and dosed with biologics at 12 mg/kg intraperitoneally on a Q7D×6 (one dose given every 7 days for a total of 6 doses), while carboplatin was dosed intraperitoneally […] at 50 mg/kg Q4D×4 (one dose given every 4 days for a total of 4 doses).

[6] = test system: MC-38 mouse colorectal cancer; assay: MC-38 syngeneic tumor growth; format: in vivo
Description: MC-38 mouse colorectal cancer cells (250,000) were implanted subcutaneously into C57BL/6 mice, and mice were randomized when the tumors reached ˜100 mm^3 and dosed with isotype antibodies or ADCs at 12 mg/kg intraperitoneally on a Q4D×6 (one dose given every 4 days for a total of 6 doses), while the anti-PD-1 antibody (“Anti-PD1 mAb”) was dosed intraperitoneally at 2 mg/kg Q4D×6 (one dose given every 4 days for a total of 6 doses).

[7] = test system: EBC-1 (human squamous NSCLC) xenograft; assay: EBC-1 xenograft tumor growth; format: in vivo, mouse; conditions: EBC-1, SCID/Beige mice; huM25-vcMMAE-E2 at 3 mg/kg (method: biologics 6 mg/kg IP Q7D×2); method: gemcitabine 100 mg/kg IP Q3D×3, result sentence names docetaxel (FIG. 21B)
[8] = test system: SCC-15 head and neck cancer xenograft; assay: SCC-15 xenograft tumor growth; format: in vivo, mouse
[9] = ADC 6 mg/kg IP Q4D×6 plus gemcitabine 100 mg/kg IP (Q3D×4)×2 (FIG. 21A)
[10] = SCID mice, biologics 6 mg/kg IP Q4D×6, gemcitabine 100 mg/kg IP (Q3D×4)×2 (FIG. 21A)
[11] = SCID-Beige mice, 6 mg/kg IP Q4D×6 (FIG. 13B)
[12] = NCI-H1650, SCID/Beige mice, biologics 6 or 12 mg/kg IP Q4D×6, erlotinib 100 mg/kg orally daily ×10, carboplatin 50 mg/kg IP Q4D×4 (FIG. 20A, 22A)
[13] = NCI-H1650, ADC 6 or 12 mg/kg IP Q4D×6 plus erlotinib 100 mg/kg orally daily ×10 (FIG. 22A)
[14] = biologics 12 mg/kg IP Q4D×6 (FIG. 21D)
[15] = biologics 12 mg/kg IP Q7D×6, carboplatin 50 mg/kg IP Q4D×4 (FIG. 21E)
[16] = SCC-15, ADC 12 mg/kg IP Q4D×6 plus single radiation dose of 15 Gy on day 0 (FIG. 21D)
[17] = SCC-15, ADC 12 mg/kg IP Q7D×6 plus carboplatin 50 mg/kg IP Q4D×4 (FIG. 21E)
[18] = SCC-15, SCID mice, ADCs 12 mg/kg IP Q7D×6, cetuximab 3 mg/kg IP Q7D×3 (FIG. 22B)
[19] = SCC-15, ADC 12 mg/kg IP Q7D×6 plus cetuximab 3 mg/kg IP Q7D×3 (FIG. 22B)

In the case of “huM25-vcMMAE-E2: huM25 conjugated with maleimidocaproyl val-cit PABA MMAE, preparation enriched in DAR2 by HIC”, the “TGD, used adjunctively with gemcitabine” value [1, 9] is reported as 183%, the “TGImax, used adjunctively with gemcitabine” value [1, 9] is reported as 85% and the “TGD, single agent” value [1, 10] is reported as 57%. For the same substance, the “TGImax, single agent” value [1, 10] was 57%, the TGImax [1, 11] was 76% and the tumor growth delay [1, 11] was 133%. The TGImax ([2]; PANC1 (3+ huLRRC15 stromal positive, cancer negative) tumor model (FIG. 17B)) was 94.4%, the TGImax ([2]; PANC1, SCID mice, biologics 12 mg/kg IP Q4D×6, gemcitabine 100 mg/kg IP Q3D×4 (FIG. 20E)) was 94% and the “TGD, single agent” value [3, 12] was 450%. The “TGImax, single agent” value [3, 12] was 92%, the “TGD, used adjunctively with erlotinib” value [3, 13] was > 538% and the “TGImax, used adjunctively with erlotinib” value [3, 13] was 92%. For the same substance, the TGD [4] was 194%, the TGImax [4] was 96% and the “TGD, single agent” value [5, 14] was 44%. The “TGImax, single agent” value [5, 14] was 58%, the “TGD, single agent” value [5, 15] was 44% and the “TGImax, single agent” value [5, 15] was 58%. The “TGD, used adjunctively with radiation” value [5, 16] was 219%, the “TGImax, used adjunctively with radiation” value [5, 16] was 90% and the “TGD, used adjunctively with carboplatin” value [5, 17] was 83%. For the same substance, the “TGImax, used adjunctively with carboplatin” value [5, 17] was 86%, the single agent activity ([6]; MC-38, C57BL/6 mice, ADC 12 mg/kg IP Q4D×6 (FIG. 22C)) was “did not show single agent activity” and the “TGImax, administered adjunctively with anti-PD-1 antibody” value ([6]; MC-38, ADC 12 mg/kg IP Q4D×6 plus anti-PD-1 antibody 2 mg/kg IP Q4D×6 (FIG. 22C)) was 87%. For the same substance, the “TGImax, single agent” value [7] was 91%, the “TGD, single agent” value [8, 18] was 44% and the “TGImax, single agent” value [8, 18] was 58%. For the same substance, the “TGD, used adjunctively with cetuximab” value [8, 19] was 125% and the “TGImax, used adjunctively with cetuximab” value [8, 19] was 87%.
